Tests used:
ovarian carcinoma CH1 = system: ovarian carcinoma CH1; parameters: method as in PMID 25856666; conditions: cited from earlier work
osteosarcoma MG63 cells = system: osteosarcoma MG63 cells; parameters: method as in PMID 25856666; conditions: cited from earlier work
[1] = system: MRC-5 normal human embryonal lung fibroblast cells; assay: MTT cytotoxicity assay, MRC-5; assay type: cell-based; conditions: 72 h
Protocol: Human colonic adenocarcinoma cell lines Colo 205 doxorubicin-sensitive (ATCC-CCL-222) and Colo 320/MDR-LRP multidrug resistant expressing ABCB1 (MDR1)-LRP (ATCC-CCL-220.1) were purchased from LGC Promochem (Teddington, UK). […] Cell lines were incubated at 37 °C, in a 5% CO2, 95% air atmosphere. The semi-adherent human colon cancer cells were detached with Trypsin-Versene (EDTA, Sigma, Steinheim, Germany) solution for 5 min at 37 °C. MRC-5 human embryonal lung fibroblast cell lines (ATCC CCL-171) were purchased from LGC Promochem. […] The cell lines were incubated at 37 °C, in a 5% CO2, 95% air atmosphere.
In the study MRC-5 non-cancerous human embryonic lung fibroblast and human colonic adenocarcinoma cell lines (doxorubicin-sensitive Colo 205 and multidrug resistant Colo 320 colonic adenocarcinoma cells) were used to determine the effect of compounds on cell growth. The effects of increasing concentrations of compounds on cell growth were tested in 96-well flat-bottomed microtiter plates. The stock solutions of the compounds were prepared in DMSO, and in the final samples the DMSO content was always lower than 1%. The compounds were diluted in a volume of 100 μL of medium.
In case of the colonic adenocarcinoma cells, the two-fold serial dilutions of compounds were prepared in 100 μL of RPMI 1640, horizontally. The semi-adherent colonic adenocarcinoma cells were treated with Trypsin-Versene (EDTA) solution. They were adjusted to a density of 1 × 10^4 cells in 100 μL of RPMI 1640 medium, and were added to each well, with the exception of the medium control wells. The final volume of the wells containing compounds and cells was 200 μL.
The culture plates were incubated at 37 °C for 72 h; at the end of the incubation period, 20 μL of MTT (Sigma) solution (from a stock solution of 5 mg/mL) were added to each well. After incubation at 37 °C for 4 h, 100 μL of sodium dodecyl sulfate (SDS) (Sigma) solution (10% in 0.01 M HCl) were added to each well and the plates were further incubated at 37 °C overnight. Cell growth was determined by measuring the optical density (OD) at 540/630 nm with Multiscan EX ELISA reader (Thermo Labsystems, Cheshire, WA, USA). […] Curves were fitted by Prism software (GraphPad Software Inc., San Diego, CA, USA) using the sigmoidal dose-response model (comparing variable and fixed slopes). The IC50 values were obtained from at least 3 independent experiments.

Chlamydia trachomatis = assay: Antichlamydia activity in HeLa cells, direct qPCR; assay type: cell-based; conditions: MOI 0.2, 48 h post infection
Protocol: Then the Hela cells were infected with C. trachomatis at multiplicity of infection (MOI) 0.2, and were treated with different concentrations of the complexes for 24 h. After 48 h post infection, the cells were lysed and the chlamydial growth reducing effect of the complexes was evaluated by comparing the chlamydial genom concentration to that seen on untreated/infected HeLa cells. The C. trachomatis DNA concentration was measured by direct quantitative PCR (qPCR). The average cycle threshold (Ct) numbers were calculated and –Ct values are shown at the various complex concentrations in Figure 2 for 7 and 8 (and Figure S2 for the rest of the complexes). The maximum C. trachomatis growth corresponded to a DNA concentration of Ct ~19 value as detected by direct qPCR, as well.
The Chlamydia trachomatis strain was propagated and partially purified as described previously with some modifications. The infected cells were stained with monoclonal antichlamydia lipopolysaccharide (LPS) antibody (AbD Serotec, Oxford, UK) and fluorescein isothiocyanate-labeled anti-mouse IgG (Sigma-Aldrich) and the number of cells containing chlamydial inclusions was counted under a UV microscope, and the titer was expressed as the number of inclusion forming units (IFU)/mL. […]

Vero cells = assay: MTT cytotoxicity in Vero cells (maximum non-toxic concentration); conditions: 24 h, up to 100 µM
Protocol: The antiviral effect of complexes against HSV-2 was screened using Vero cells (originally isolated from kidney epithelial cells) to host the growing viruses.
(§1) HeLa 229 cells (ATCC) and Vero cells (ATCC) were cultured in minimal essential medium (MEM) (Sigma, Steinheim, Germany) with Earle salts supplemented with 10% heat-inactivated fetal bovine serum (FBS) (Gibco; ThermoFisher Scientific, Inc., Waltham, MA, USA), 2 mM L-glutamine, 1× non-essential amino acids, 8 mM HEPES, 25 μg/mL gentamycin and 1 µg/mL fungisone. The cells were incubated for 1 h at room temperature to reduce the edge effect and then overnight at 37 °C, 5% CO2 to obtain a 90% confluent cell layer.
(§2) The density of cells was 4 × 10^4 cells/well in 100 µL of MEM with Earle salts supplemented with 10% heat-inactivated FBS, 2 mM L-glutamine, 1× MEM vitamins, 1× non-essential amino acids, 0.005% Na-pyruvate, 25 µg/mL gentamycin, 1 µg/mL fungisone). The plates were incubated for 1 h room temperature and then overnight at 37 °C, 5% CO2. Next day, when the cells reached a ~90% confluency, the medium was supplemented with the serial 2-fold dilutions of the complexes in three parallel wells for each concentration. […] After 24 h incubation for Vero cells and 48 h incubation for HeLa cells, 10 µL of the MTT (Sigma, Steinheim, Germany) labelling reagent (final concentration 0.5 mg/mL) was added to each well and the plate was incubated for 4 h at 37 °C, 5% CO2. After the incubation, 100 µL of the solubilisation solution (10% SDS in 1 M HCl) was added into each well, and the plate was allowed to stand overnight in the incubator at 37 °C, 5% CO2.

[2] = system: HeLa 229 human cervix carcinoma cells; assay: MTT cytotoxicity in HeLa 229 cells (maximum non-toxic concentration); conditions: 48 h
Protocol: as §1, §2

[3] = Shake-flask n-octanol/water distribution coefficient; assay type: physicochemical; conditions: 25.0 °C, 20 mM phosphate buffer
Protocol: Chloride ion concentrations of 4, 24 and 100 mM were chosen according to the chloride content of the nucleus, cytosol and blood serum, respectively. […] Then parallel artificial membrane permeability assay (PAMPA) was used to estimate the ability of the complexes to penetrate membranes by passive diffusion and the effective passive permeability coefficients (Peff) obtained for complexes 1–3 are shown in Table 4 (in case of 4, there are no data due to formation of precipitate).
Distribution coefficients at physiological pH (D7.4) of the complexes were determined by the traditional shake-flask method in n-octanol/buffered aqueous solution at pH 7.40 (20 mM phosphate buffer) at various chloride concentrations and at 25.0 ± 0.2 °C using UV-vis detection as described in our former works [37, 38, 42]. PAMPA was applied for the complexes with a Gentest pre-coated PAMPA Plate System (Corning, Corning, NY, USA) [56]. Briefly, a 96-well filter plate was used as the permeation acceptor and the 96-well bottom plate was used as the permeation donor. For simplicity, PBS was used both as donor and acceptor buffer throughout this study. […] Peff values were calculated according to the equation reported by Yu et al. [57].

[4] = system: array of cancer cell lines including cisplatin- and adriamycin-resistant strains; parameters: method as in PMID 34065335; conditions: cited from earlier work
[5] = system: hormone dependent MCF-7 breast cancer cell line; parameters: method as in PMID 27357845, PMID 31461189, PMID 24189185; conditions: read-out: half maximal effective concentration, MCF-7; cited from earlier work

Row | SMILES | IC50 (ovarian carcinoma CH1) [µM] | IC50 (osteosarcoma MG63 cells) [µM] | IC50 [1] [µM] | chlamydial growth difference between treated and untreated cells (Chlamydia trachomatis) | toxicity in Vero cells (Vero cells) | maximum non-toxic concentration, HeLa 229 [2] [µM] | logD7.4 ([3]; pH 7.4, c(KCl) 4 mM) | logD7.4 ([3]; pH 7.4, c(KCl) 24 mM) | logD7.4 ([3]; pH 7.4, c(KCl) 100 mM) | also measured
1 | Cc1ccc(C(C)C)cc1.O=C(C=C([O-])C(F)(F)F)c1ccc(Cl)cc1.[Cl-].[Ru+2] [complex 7] | 17 | 64 | 26.5 ± 3.2 | ca. 101 fold | did not produce significant toxicity at any of the concentrations | 50 |  |  |  | 
2 | Cc1ccc(C(C)C)cc1.[Cl-].[O-]n1ccc2ccccc2c1=S.[Ru+2] [complex 3] |  |  | 7.6 ± 1.6 |  |  |  | +0.92 ± 0.06 | +1.22 ± 0.04 | +1.37 ± 0.06 | 
3 | C1N2CN3CN1CP(C2)C3.Cc1ccc(C(C)C)cc1.F[P-](F)(F)(F)(F)F.[O-]n1ccccc1=S.[Ru+2] [complex 2] |  |  | > 100 |  |  |  |  |  |  | 
4 | C1N2CN3CN1CP(C2)C3.Cc1ccc(C(C)C)cc1.F[P-](F)(F)(F)(F)F.[O-]n1ccc2ccccc2c1=S.[Ru+2] [complex 4] |  |  |  |  |  |  |  |  |  | concentration up to which inactive, cancer cell line panel [4]: > 50 µM
5 | C1N2CN3CN1CP(C2)C3.Cc1ccc(C(C)C)cc1.F[P-](F)(F)(F)(F)F.O=C(C=C([O-])C(F)(F)F)c1ccc(Cl)cc1.[Ru+2] [complex 8] | 8 | 41 | 17.6 ± 1.5 | ca. 155 fold | did not produce significant toxicity at any of the concentrations | 50 |  |  |  | 
6 | Cc1ccc(C(C)C)cc1.[Cl-].[O-]n1ccccc1=S.[Ru+2] [complex 1] |  |  | 2.17 ± 0.22 |  |  |  | −0.43 ± 0.09 | −0.10 ± 0.05 | +0.31 ± 0.03 | EC50 [5]: 3.8 µM

From PMC8226722, “Comparison of Solution Chemical Properties and Biological Activity of Ruthenium Complexes of Selected β-Diketone, 8-Hydroxyquinoline and Pyrithione Ligands” (Pharmaceuticals, 2021)
